ChEMBL document CHEMBL4052763, “Discovery of dual Axl/VEGF-R2 inhibitors as potential anti-angiogenic and anti-metastatic drugs for cancer chemotherapy” (Bioorg Med Chem Lett, 2017)

Assays:
[1] = Half life in iv dosed Sprague-Dawley rat; assay type: ADME, organism-based; details: in vivo
[2] = Volume of distribution at steady state in iv dosed Sprague-Dawley rat; assay type: ADME, organism-based; details: in vivo, read-out: Vdss
Insulin receptor = Insulin receptor (Homo sapiens, UniProt P06213); test: Inhibition of insulin stimulated INSR phosphorylation in human HeLa cells preincubated for 1 hr followed by insulin addition measured after 5 mins by Western blot analysis; assay type: cell-based
Chain of Insulin receptor (P06213 28-758 limits assumed): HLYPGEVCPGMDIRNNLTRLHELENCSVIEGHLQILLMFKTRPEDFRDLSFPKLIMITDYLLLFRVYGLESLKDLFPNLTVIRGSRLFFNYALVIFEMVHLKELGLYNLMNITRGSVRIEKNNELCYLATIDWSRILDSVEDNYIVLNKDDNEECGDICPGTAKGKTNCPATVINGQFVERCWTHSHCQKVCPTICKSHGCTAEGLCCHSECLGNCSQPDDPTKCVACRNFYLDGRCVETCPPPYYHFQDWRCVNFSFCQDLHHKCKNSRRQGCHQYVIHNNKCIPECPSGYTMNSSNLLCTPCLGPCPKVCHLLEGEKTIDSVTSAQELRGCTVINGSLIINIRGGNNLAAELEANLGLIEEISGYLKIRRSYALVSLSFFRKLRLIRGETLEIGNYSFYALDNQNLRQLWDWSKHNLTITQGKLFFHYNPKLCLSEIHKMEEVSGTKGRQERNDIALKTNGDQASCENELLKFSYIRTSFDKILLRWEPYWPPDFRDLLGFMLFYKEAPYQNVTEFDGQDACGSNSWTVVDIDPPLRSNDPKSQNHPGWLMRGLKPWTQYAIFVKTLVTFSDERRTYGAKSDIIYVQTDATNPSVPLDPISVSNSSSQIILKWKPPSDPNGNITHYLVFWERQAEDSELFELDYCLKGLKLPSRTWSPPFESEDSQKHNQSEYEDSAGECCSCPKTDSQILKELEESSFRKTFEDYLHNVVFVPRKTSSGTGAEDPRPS
Chain of Insulin receptor (P06213 763-1382 limits assumed): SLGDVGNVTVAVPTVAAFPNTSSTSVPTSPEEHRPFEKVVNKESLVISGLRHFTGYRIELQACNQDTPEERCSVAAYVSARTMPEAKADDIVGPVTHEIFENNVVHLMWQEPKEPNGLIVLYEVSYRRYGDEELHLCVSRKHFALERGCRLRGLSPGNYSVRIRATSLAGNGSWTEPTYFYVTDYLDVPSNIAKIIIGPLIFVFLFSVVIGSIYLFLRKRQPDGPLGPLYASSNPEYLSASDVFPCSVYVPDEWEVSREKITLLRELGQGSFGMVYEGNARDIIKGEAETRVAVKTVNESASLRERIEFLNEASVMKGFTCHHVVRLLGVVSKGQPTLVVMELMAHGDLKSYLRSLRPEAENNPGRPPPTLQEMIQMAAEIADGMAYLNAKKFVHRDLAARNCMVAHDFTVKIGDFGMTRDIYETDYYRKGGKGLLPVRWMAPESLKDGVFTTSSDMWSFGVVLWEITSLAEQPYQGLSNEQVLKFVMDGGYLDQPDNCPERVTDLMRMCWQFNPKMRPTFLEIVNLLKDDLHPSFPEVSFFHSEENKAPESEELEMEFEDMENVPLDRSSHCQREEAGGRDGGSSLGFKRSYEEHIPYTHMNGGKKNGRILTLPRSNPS

[3] = target: Vascular endothelial growth factor receptor 2 (Homo sapiens, UniProt P35968); test: Inhibition of VEGF stimulated VEGFR2 phosphorylation at […] residues in HUVEC preincubated for 1 hr followed by VEGF addition measured after 5 mins by Western blot analysis
Chain of Vascular endothelial growth factor receptor 2 (P35968 whole entry): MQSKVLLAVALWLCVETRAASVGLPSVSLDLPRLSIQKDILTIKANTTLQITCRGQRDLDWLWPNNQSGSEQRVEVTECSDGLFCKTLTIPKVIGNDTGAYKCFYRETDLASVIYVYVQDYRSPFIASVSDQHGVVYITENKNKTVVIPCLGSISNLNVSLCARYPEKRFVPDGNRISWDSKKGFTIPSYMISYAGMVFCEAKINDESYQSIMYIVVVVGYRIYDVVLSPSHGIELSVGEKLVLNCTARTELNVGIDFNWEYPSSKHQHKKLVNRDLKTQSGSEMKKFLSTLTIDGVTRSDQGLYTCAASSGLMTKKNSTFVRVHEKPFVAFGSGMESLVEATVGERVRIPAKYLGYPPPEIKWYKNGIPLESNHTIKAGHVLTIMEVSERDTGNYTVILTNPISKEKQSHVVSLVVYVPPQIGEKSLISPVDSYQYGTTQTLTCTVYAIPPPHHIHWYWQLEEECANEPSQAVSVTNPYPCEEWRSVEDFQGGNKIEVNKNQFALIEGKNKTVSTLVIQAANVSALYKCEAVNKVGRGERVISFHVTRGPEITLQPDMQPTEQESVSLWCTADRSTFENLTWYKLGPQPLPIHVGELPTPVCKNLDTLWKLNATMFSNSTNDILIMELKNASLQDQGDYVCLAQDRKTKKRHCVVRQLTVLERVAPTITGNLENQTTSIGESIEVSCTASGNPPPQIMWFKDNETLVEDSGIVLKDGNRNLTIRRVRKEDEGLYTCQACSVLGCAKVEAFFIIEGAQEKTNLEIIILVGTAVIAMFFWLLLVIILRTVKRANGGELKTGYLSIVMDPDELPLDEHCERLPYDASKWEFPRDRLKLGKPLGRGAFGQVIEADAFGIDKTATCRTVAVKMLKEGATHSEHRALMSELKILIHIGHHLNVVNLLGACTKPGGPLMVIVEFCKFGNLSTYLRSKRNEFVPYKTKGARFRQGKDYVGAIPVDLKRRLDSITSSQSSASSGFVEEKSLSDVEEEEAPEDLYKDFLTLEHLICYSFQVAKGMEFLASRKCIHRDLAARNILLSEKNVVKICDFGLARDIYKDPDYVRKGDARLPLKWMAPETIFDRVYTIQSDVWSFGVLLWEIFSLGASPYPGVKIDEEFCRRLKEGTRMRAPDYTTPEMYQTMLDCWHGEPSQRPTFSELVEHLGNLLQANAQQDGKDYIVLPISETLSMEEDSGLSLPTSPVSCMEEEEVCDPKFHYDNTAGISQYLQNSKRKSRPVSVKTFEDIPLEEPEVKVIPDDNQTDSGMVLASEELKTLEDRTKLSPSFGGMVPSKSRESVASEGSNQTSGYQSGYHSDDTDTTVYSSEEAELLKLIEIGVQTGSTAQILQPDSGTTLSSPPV

[4] = Clearance in iv dosed Sprague-Dawley rat; assay type: ADME, organism-based; details: in vivo
[5] = target: T1, Tyrosine-protein kinase receptor UFO (Homo sapiens, UniProt P30530); test: Inhibition of Axl in human HeLa cells assessed as reduction in AKT phosphorylation at Ser 473 residues pre-incubated for 1 hr before preclustered anti-Axl antibody stimulation by Western blot analysis; assay type: cell-based
T1 sequence (P30530 whole entry): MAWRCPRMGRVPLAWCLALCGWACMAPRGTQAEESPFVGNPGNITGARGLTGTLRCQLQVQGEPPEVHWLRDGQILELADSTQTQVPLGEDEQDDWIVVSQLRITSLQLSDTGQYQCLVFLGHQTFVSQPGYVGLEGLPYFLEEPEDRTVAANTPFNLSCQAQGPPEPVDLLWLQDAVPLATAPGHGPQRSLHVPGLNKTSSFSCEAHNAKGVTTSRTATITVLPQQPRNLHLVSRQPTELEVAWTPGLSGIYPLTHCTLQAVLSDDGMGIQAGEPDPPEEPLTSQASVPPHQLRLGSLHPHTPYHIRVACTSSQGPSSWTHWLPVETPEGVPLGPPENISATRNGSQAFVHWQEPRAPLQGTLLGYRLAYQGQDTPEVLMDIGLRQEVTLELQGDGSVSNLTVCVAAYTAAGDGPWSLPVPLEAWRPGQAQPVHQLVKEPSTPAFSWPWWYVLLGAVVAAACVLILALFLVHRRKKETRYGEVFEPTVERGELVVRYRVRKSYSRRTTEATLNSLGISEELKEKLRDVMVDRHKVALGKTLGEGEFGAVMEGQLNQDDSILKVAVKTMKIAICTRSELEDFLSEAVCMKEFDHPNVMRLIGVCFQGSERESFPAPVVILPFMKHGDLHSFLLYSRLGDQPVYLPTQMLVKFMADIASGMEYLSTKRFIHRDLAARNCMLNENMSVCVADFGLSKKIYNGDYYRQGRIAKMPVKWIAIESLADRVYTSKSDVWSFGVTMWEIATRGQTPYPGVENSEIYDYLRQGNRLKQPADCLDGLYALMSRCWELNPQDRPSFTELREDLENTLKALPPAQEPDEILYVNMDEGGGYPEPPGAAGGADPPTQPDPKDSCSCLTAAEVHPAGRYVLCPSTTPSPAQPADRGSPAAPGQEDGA

[6] = Aqueous solubility of the compound; assay type: physicochemical; details: buffer
[7] = Oral bioavailability in Sprague-Dawley rat; assay type: ADME, organism-based; details: in vivo
MDA-MB-231 [8] = test: Antitumor activity against human MDA-MB-231 cells xenografted in nu/nu mouse assessed as tumor growth delay at 125 mg/kg, po bid after 21 days relative to control; assay type: functional
CAKI-1 [9] = test: Antitumor activity against human Caki1 cells xenografted model assessed as tumor growth inhibition at 85 mg/kg, po bid relative to control; assay type: functional; details: CAKI-1, po, read-out: TGI
Mus musculus [10] = test: Inhibition of fibroblast growth factor-induced neovascularization in mouse corneal micropocket at 50 mg/kg, bid relative to control; assay type: functional
Mus musculus [11] = test: Toxicity in nu/nu mouse xenografted with human MDA-MB-231 cells at 85 mg/kg, po bid after 21 days; assay type: organism-based; details: in vivo, 504 h
Mus musculus [12] = test: Toxicity in nu/nu mouse xenografted with human MDA-MB-231 cells at 125 mg/kg, po bid after 21 days; assay type: organism-based; details: in vivo, 504 h
MDA-MB-231 [13] = test: Antitumor activity against human MDA-MB-231 cells xenografted in nu/nu mouse assessed as tumor growth inhibition at 85 mg/kg, po bid after 21 days relative to control; assay type: functional; details: MDA-MB-231, po, 504 h, read-out: TGI
MDA-MB-231 [14] = test: Antitumor activity against human MDA-MB-231 cells xenografted in nu/nu mouse assessed as tumor growth inhibition at 125 mg/kg, po bid after 21 days relative to control; assay type: functional; details: MDA-MB-231, po, 504 h, read-out: TGI
Mus musculus [15] = test: Inhibition of fibroblast growth factor-induced neovascularization in mouse corneal micropocket at 100 mg/kg, bid relative to control; assay type: functional
[16] = target: T1, Tyrosine-protein kinase receptor UFO; test: Inhibition of N-terminal GST-tagged human Axl (464 to 885 end residues) cytoplasmic domain expressed in baculovirus expression system using HS1 peptide as substrate after 40 mins in presence of ATP by fluorescence polarization assay
MDA-MB-231 [17] = test: Antitumor activity against human MDA-MB-231 cells xenografted in nu/nu mouse assessed as tumor growth inhibition at 80 mg/kg, qd after 21 days relative to control; assay type: functional; details: MDA-MB-231, 504 h, read-out: TGI
Mus musculus [18] = test: Inhibition of fibroblast growth factor-induced neovascularization in mouse corneal micropocket at 80 mg/kg, qd relative to control; assay type: functional
CAKI-1 [19] = test: Antitumor activity against human Caki1 cells xenografted model assessed as tumor growth inhibition at 80 mg/kg, po qd relative to control; assay type: functional; details: CAKI-1, po, read-out: TGI

SMILES: COc1cc2ncnc(-n3nc(Nc4ccc(N5CCN(C6CC7CCC6C7)CC5)c(Cl)c4)nc3N)c2cc1OC (configuration not stated)
- half-life [1]: 2.7 h
- Vd [2]: 27 L/kg
- EC50 (Insulin receptor): > 10000 nM
- EC50 [3]: 47 nM
- clearance [4]: 117 mL/min/kg

SMILES: Cc1nc(-n2nc(Nc3ccc(OCCN4CCCC4)cc3)nc2N)c2ccccc2n1
- EC50 (Insulin receptor): 320 nM

SMILES: Nc1nc(Nc2ccc(OCCN3CCCC3)cc2)nn1-c1ncnc2ccc(F)cc12
- EC50 (Insulin receptor): 126 nM

SMILES: Nc1nc(Nc2ccc(OCCN3CCCC3)c(F)c2)nn1-c1ccccn1
- EC50 [5]: 334 nM

SMILES: COc1cc2ncnc(-n3nc(Nc4ccc(N5CCN(C)CC5)cc4)nc3N)c2cc1OC
- EC50 (Insulin receptor): 4580 nM
- EC50 [3]: 3 nM
- EC50 [5]: 39 nM

SMILES: Cc1csc2c(-n3nc(Nc4ccc(N5CCN([C@@H]6C[C@H]7CC[C@@H]6C7)CC5)c(Cl)c4)nc3N)nc(Cl)nc12
- EC50 [5]: 216 nM

SMILES: Nc1nc(Nc2ccc(OCCN3CCCC3)cc2)nn1-c1ncnc2c1sc1ccccc12
- EC50 (Insulin receptor): 300 nM

SMILES: COc1cc2ncnc(-n3nc(Nc4ccc(N5CCN(C6CCCCC6)CC5)c(F)c4)nc3N)c2cc1OC
- EC50 (Insulin receptor): 5030 nM
- EC50 [3]: 26 nM
- EC50 [5]: 55 nM

SMILES: COc1cc2ncnc(-n3nc(Nc4ccc(OCCN5CCCC5)c(Cl)c4)nc3N)c2cc1OC
- EC50 (Insulin receptor): 4170 nM

SMILES: Nc1nc(Nc2ccc(OCCN3CCCC3)cc2)nn1-c1ncnc2c1CCC2
- EC50 (Insulin receptor): 1010 nM

SMILES: Nc1nc(Nc2ccc(OCCN3CCCC3)cc2)nn1-c1ncnc2ccc(Cl)cc12
- EC50 (Insulin receptor): 14 nM

SMILES: COc1cc2ncnc(-n3nc(Nc4ccc(N5CC[C@H](N(C)C)C5)cc4)nc3N)c2cc1OC
- EC50 (Insulin receptor): 4760 nM
- EC50 [3]: 19 nM
- EC50 [5]: 193 nM

SMILES: COc1cc2ncnc(-n3nc(Nc4ccc(C5CCN(C)CC5)cc4)nc3N)c2cc1OC
- EC50 (Insulin receptor): 1320 nM
- EC50 [3]: 14 nM
- EC50 [5]: 16 nM

SMILES: Nc1nc(Nc2ccc(OCCN3CCCC3)c(F)c2)nn1C(=O)c1ccc(N2CCOCC2)cc1
- solubility [6]: Insoluble
- EC50 (Insulin receptor): 2750 nM
- bioavailability [7]: < 1%
- EC50 [5]: 47 nM

SMILES: COc1cc2ncnc(-n3nc(Nc4ccc(OC5CCCN(C)C5)cc4)nc3N)c2cc1OC (configuration not stated)
- EC50 (Insulin receptor): 1800 nM
- EC50 [3]: 4 nM
- EC50 [5]: 52 nM

SMILES: Cc1csc2c(-n3nc(Nc4ccc(N5CCN([C@H]6C[C@@H]7CC[C@H]6C7)CC5)c(Cl)c4)nc3N)nc(Cl)nc12
- Activity (MDA-MB-231 [8]): 79%
- inhibition in vivo at 85 mg/kg (CAKI-1 [9]): 80%
- inhibition in vivo at 50 mg/kg (Mus musculus [10]): 50%
- Activity (Mus musculus [11]): Non-Toxic
- Activity (Mus musculus [12]): Toxic
- inhibition in vivo at 85 mg/kg (MDA-MB-231 [13]): 69%
- inhibition in vivo at 125 mg/kg (MDA-MB-231 [14]): 83%
- EC50 [5]: 136 nM
- inhibition in vivo at 100 mg/kg (Mus musculus [15]): 73%

SMILES: Nc1nc(Nc2ccc(OCCN3CCCC3)cc2)nn1-c1nc(Cl)nc2ccccc12
- EC50 (Insulin receptor): 241 nM
- IC50 [16]: 7 nM
- EC50 [5]: 27 nM

SMILES: Cc1csc2c(-n3nc(Nc4ccc(OCCN5CCCC5)cc4)nc3N)nc(Cl)nc12
- EC50 (Insulin receptor): 582 nM

SMILES: Nc1nc(Nc2ccc(N3CCN(C4CC5CCC4C5)CC3)c(F)c2)nn1-c1ncnc2ccsc12 (racemic)
- EC50 [5]: 20 nM

SMILES: Cc1csc2c(-n3nc(Nc4ccc(N5CCN(C6CC7CCC6C7)CC5)c(F)c4)nc3N)ncnc12 (racemic)
- EC50 [3]: 90 nM
- EC50 [5]: 62 nM

SMILES: Cc1csc2c(-n3nc(Nc4ccc(N5CCN(C6CC7CCC6C7)CC5)cc4)nc3N)nc(Cl)nc12 (racemic)
- half-life [1]: 4.9 h
- Vd [2]: 4.4 L/kg
- EC50 [3]: 65 nM
- clearance [4]: 11.5 mL/min/kg

SMILES: Nc1nc(Nc2ccc(N3CCN(C4CC5CCC4C5)CC3)cc2)nn1-c1ncnc2c1sc1ncccc12 (racemic)
- EC50 [3]: 24 nM
- EC50 [5]: 52 nM

SMILES: Nc1nc(Nc2ccc(N3CCN(C4CC5CCC4C5)CC3)c(Cl)c2)nn1-c1ncnc2sccc12 (racemic)
- EC50 [3]: 160 nM
- EC50 [5]: 85 nM

SMILES: Cc1nc(-n2nc(Nc3ccc(N4CCN(C5CC6CCC5C6)CC4)cc3)nc2N)c2ccccc2n1 (racemic)
- EC50 [3]: 104 nM

SMILES: Nc1nc(Nc2ccc(N3CCN(C4CC5CCC4C5)CC3)cc2)nn1-c1ncnc2ccc(Cl)cc12 (racemic)
- EC50 [3]: 196 nM

SMILES: CC(C)(C)c1cc2ncnc(-n3nc(Nc4ccc(N5CCN(C6CC7CCC6C7)CC5)c(Cl)c4)nc3N)c2s1 (racemic)
- EC50 [3]: 80 nM
- EC50 [5]: 84 nM

SMILES: Nc1nc(Nc2ccc(N3CCN(C4CC5CCC4C5)CC3)cc2)nn1-c1ncnc2ccc(F)cc12 (racemic)
- half-life [1]: 2.3 h
- Vd [2]: 7.9 L/kg
- EC50 [3]: 146 nM
- clearance [4]: 44 mL/min/kg

SMILES: Nc1nc(Nc2ccc(N3CCN(C4CC5CCC4C5)CC3)cc2)nn1-c1ncnc2ccsc12 (racemic)
- EC50 [3]: 24 nM
- EC50 [5]: 21 nM

SMILES: Nc1nc(Nc2ccc(N3CCN(C4CC5CCC4C5)CC3)cc2)nn1-c1nccc2ccccc12 (racemic)
- half-life [1]: 2.3 h
- Vd [2]: 8.8 L/kg
- clearance [4]: 52 mL/min/kg

SMILES: CCN(CC)CCNC(=O)c1c(C)[nH]c(/C=C2\C(=O)Nc3ccc(F)cc32)c1C [SUNITINIB]
- inhibition in vivo at 80 mg/kg (MDA-MB-231 [17]): 84%
- inhibition in vivo at 80 mg/kg (Mus musculus [18]): 78%
- inhibition in vivo at 80 mg/kg (CAKI-1 [19]): 85%
